Laboratory results: patent EP1151753B1, “PREVENTIVE AND THERAPEUTIC AGENTS FOR ARTERIOSCLEROSIS” (CCI CORPORATION, priority 1999, dated 2000)

Key:
[1] = Biochemical test of blood and measurement of body weight, WHHL rabbit model; type: in vivo, WHHL type rabbits; details: WHHL rabbits
Experimental: Now, the pharmacogenic effect of the agent of this invention for preventing and curing arteriosclerosis will be described specifically below with reference to a pharmacological test using high cholesterol-loaded rabbits and the WHHL (Watanabe heritable hyperlipidemic) rabbits forming a model of the familial high-cholesterol blood disease. The data were wholly reported by the average ± standard error (SE) and the significant differences among separate groups were determined by the Student's t-test. The risk factor, p < 0.05, was rated as forming a significance of difference.
1. Animal used and feeding conditions In the test, female and male WHHL type rabbits (SPF: Kitayama Labels K.K.) which were eight weeks old at the time of arrival at the laboratory were subjected to quarantine and domestication and visually inspected as to the general condition and, after the absence of abnormality was confirmed, put to use. The body weights at the time of starting administration (at the age of nine weeks) were in the range of 1.5 - 1.9 kg in the case of male rabbits and in the range of 1.4 - 1.8 kg in the case of female rabbits. Throughout the entire duration of the test, the animals were raised as accommodated one each in hanger cages of aluminum installed on a stainless steel rack inside a clean feeding chamber set at a temperature in the range of 20 - 26°, a relative humidity in the range of 40 - 70%, a number of ventilations in the range of 10 - 20 turns/hour, and an illumination time within the range of 12 hours (7.00 - 19:00). They were fed on a commercially available radioactively sterilized solid feed (made by Oriental Kobo K.K. and sold under the product code of "RC4") and they were left freely drinking the tap water delivered by an automatic water supplying device. 2. Setting dosage and method of administration The dosage of TMG was set at 800 mg/head/day. The TMG was solved in reagent grade ethanol. The produced solution was sprayed on the feed and the wet feed was left drying in the air. A mixed feed was prepared so as to contain 800 mg of TMG per 100 g of the feed. The mixed feed was given to the rabbits every morning at a rate of 100 g/day per head for 27 weeks for the sake of attaining oral consumption of the TMG. The feed for the control group was obtained by spraying ethanol alone on a feed and air-drying the wet feed. It was given to the rabbits of the control group at a rate of 100 g/day per head for 27 weeks. 3. Formation of groups and number of animals A control group and a TMG-administration group were formed; each group consistingof threemales and three females, namely a total of six rabbits. These animals were apportioned to the two groups randomly and nevertheless elaborately so as to avoid confusion of the children of one brood in either group to the fullest possible extent and equalize as much as permissible the average body weights and the average total cholesterol numbers in blood serum of the two groups with the body weights and the total cholesterol numbers found at the time of completion of the domestication. 4. […] The blood was centrifuged to separate blood serum and the blood serum was analyzed for the items shown in Table 5 by the use of an automatic analyzer (made by Hitachi. Ltd. and sold under the product code of "736-20"). The body weight of each rabbit was measured at the rate of once a week throughout the entire duration of the administration.

WHHL rabbit model = experiment: Evaluation of morbid alteration of aorta (Sudan dyeing), WHHL rabbit model; type: in vivo, WHHL type rabbits; details: WHHL rabbits
Source text: 1. Animal used and feeding conditions In the test, female and male WHHL type rabbits (SPF: Kitayama Labels K.K.) which were eight weeks old at the time of arrival at the laboratory were subjected to quarantine and domestication and visually inspected as to the general condition and, after the absence of abnormality was confirmed, put to use. The body weights at the time of starting administration (at the age of nine weeks) were in the range of 1.5 - 1.9 kg in the case of male rabbits and in the range of 1.4 - 1.8 kg in the case of female rabbits. Throughout the entire duration of the test, the animals were raised as accommodated one each in hanger cages of aluminum installed on a stainless steel rack inside a clean feeding chamber set at a temperature in the range of 20 - 26°, a relative humidity in the range of 40 - 70%, a number of ventilations in the range of 10 - 20 turns/hour, and an illumination time within the range of 12 hours (7.00 - 19:00). […] The blood was centrifuged to separate blood serum and the blood serum was analyzed for the items shown in Table 5 by the use of an automatic analyzer (made by Hitachi. Ltd. and sold under the product code of "736-20"). The body weight of each rabbit was measured at the rate of once a week throughout the entire duration of the administration. […]

[2] = TMG 800 mg/head/day for 27 weeks
[3] = blood serum, TMG 800 mg/head/day in feed, average ± SE

Question: For `Cc1c(C)c2c(c(C)c1O)CCC(C)(C[C@H]1O[C@H](CO)[C@@H](O)[C@H](O)[C@H]1O)O2` (stereo partly drawn) [TMG, 2-(α-D-glucopyranosyl)methyl-2,5,7,8-tetramethyl chroman-6-ol], which “activity of lowering the blood serum lipids (T-CHO, TG, PL, LDL-CHO)” value [1, 2] is on record?
Answer: no activity

Question: And the “biochemical test of blood” value [1, 2]?
Answer: no sign of abnormality

Question: And the Body weight ([1]; TMG 800 mg/head/day in feed, average ± SE)?
Answer: 2.89 ± 0.11 kg

Question: What about the ALB [1, 3] of the same compound?
Answer: 2.4 ± 0.1 g/dL

Question: What about the ALP [1, 3] of the same compound?
Answer: 87± 5 mU/ml

Question: What about the ChE [1, 3] of the same compound?
Answer: 0.19 ± 0.05 U/ml

Question: What about the GOT [1, 3] of the same compound?
Answer: 26.0 ± 11.1 mU/ml

Question: And the GPT [1, 3]?
Answer: 59.7 ± 12.3 mU/ml

Question: And the LDH [1, 3]?
Answer: 97 ± 4 mU/ml

Question: What about the PL [1, 3] of the same compound?
Answer: 459 ± 52 mg/dL

Question: And the T-CHO [1, 3]?
Answer: 934 ± 49 mg/dL

Question: What about the TG [1, 3] of the same compound?
Answer: 169 ± 23 mg/dL

Question: What about the “occurrence of the atherosclerosis” value (WHHL rabbit model; [2]) of the same compound?
Answer: significantly repressing

Question: What about the “Surface involvement (%)” value (WHHL rabbit model; area occupied by deposited lipid in whole area of aorta, TMG 800 mg/head/day in feed, 27th week, control 64.6±3.9, p < 0.05) of the same compound?
Answer: 52.4 ± 4.7 %
